System: not listed separately
Test: Plasma concentration after oral administration to rats, determined by UT7/EPO-mpl proliferation bioassay
Type: in vivo
Details: rat, male Sprague-Dawley rats, 10 mg/kg, between 0.5 and 2 hours after administration, read-out: Cmax (maximum concentration in blood)
Procedure: Each of the compounds of Synthetic Examples was suspended in a 99/1 liquid mixture of 0.5% methylcellulose/Polyoxyethylene Sorbitan Monooleate and orally administered to 7-week-old male Sprague-Dawley rats (Japan SLC, Inc.) at a dose of 10 mg/kg/10 mL through a stomach tube. Between 0.5 and 2 hours after the administration of the compounds, blood was periodically collected from the cervical vein with heparin as the anticoagulant. The blood was centrifuged at 3500 min^−1 for 10 minutes to obtain plasma. The plasma was added to the assay system used for assay of proliferation of a thrombopoietin-dependent cell line UT7/EPO-mpl in Assay Example 1 at final concentrations of from 0.1 to 3%, and the cell proliferation was assayed. The concentration of each compound in plasma was calculated from the cell proliferation in the presence of plasma by comparison with a standard curve of cell proliferation versus compound concentration prepared for each compound. The maximum concentration (Cmax) of each of the compounds of Synthetic Examples in blood between 0.5 and 2 hours after the oral administration to rats is shown in Table 3.

Compound	Cmax
CCN(CC)C(=O)c1ccc(C(=O)NN=C(C)c2nn(C)c(-c3ccc(C(F)(F)F)cc3)c2O)s1.[K] [Synthetic Example 1, 5-{1-[4-hydroxy-1-methyl-5-(4-trifluoromethylphenyl)-1H-pyrazol-3-yl]ethylidenehydrazinocarbonyl}thiophene-2-carboxylic Acid Diethylamide Potassium Salt]	760 ng/mL
CC(=NNC(=O)c1ccc(C(=O)NCc2ccccn2)s1)c1nn(C)c(-c2ccc(C(F)(F)F)cc2)c1O.[K] [Synthetic Example 2, 5-{1-[4-hydroxy-1-methyl-5-(4-trifluoromethylphenyl)-1H-pyrazol-3-yl]ethylidenehydrazinocarbonyl}thiophene-2-carboxylic Acid 2-picolylamide Potassium Salt]	1200 ng/mL

System: Human bone marrow CD34+ cells
Test: Megakaryocyte colony stimulating activity (megakaryocyte colony forming method)
Type: cell-based
Details: 11 days, MegaCult-C, colonies of at least 8 stained megakaryocyte cells, average of at least 2 wells
Procedure: The action of the compounds of Synthetic Examples 2 to 6 of the present invention and Reference Synthetic Examples 6 to 7 on the proliferation, differentiation and maturation of megakaryocyte cells was measured by the megakaryocyte colony forming method using human bone marrow cells. Human bone marrow CD34^+ cells (Cambrex Bio Science Walkersville) were incubated on 2-well chamber slide for 11 days in a CO2 incubator (5% Co2, 37° C.) using MegaCult™-C (StemCell Technologies) containing 0.1% (v/v) of the compounds of Synthetic Examples dissolved in dimethyl sulfoxide. After dehydration and fixation, the cells were stained with an anti-glycoprotein IIb/IIIa antibody in accordance with the instruction by the manufacturer. The colonies consisting of at least 8 stained megakaryocyte cells in each well were counted under a microscope. The megakaryocyte colony counts in at least 2 wells were averaged.

Compound	Colony count at 1 μg/mL
CC(=NNC(=O)c1ccc(C(=O)NC(C)C)s1)c1nn(C)c(-c2ccc(C(F)(F)F)cc2)c1O [Synthetic Example 3, 5-{1-[4-hydroxy-1-methyl-5-(4-trifluoromethylphenyl)-1H-pyrazol-3-yl]ethylidenehydrazinocarbonyl}thiophene-2-carboxylic Acid 2-propylamide]	141
C/C(=N\NC(=O)c1ccc(C(=O)O)s1)c1nn(C)c(-c2ccc(C(C)(C)C)cc2)c1O [Reference Synthetic Ex. 6, reference compound]	1
COCCNC(=O)c1ccc(C(=O)NN=C(C)c2nn(C)c(-c3ccc(C(F)(F)F)cc3)c2O)s1 [Synthetic Example 5, 5-{1-[4-hydroxy-1-methyl-5-(4-trifluoromethylphenyl)-1H-pyrazol-3-yl]ethylidenehydrazinocarbonyl}thiophene-2-carboxylic Acid 2-methoxyethylamide]	335
CC(=NNC(=O)c1ccc(C(=O)NCc2ccncc2)s1)c1nn(C)c(-c2ccc(Cl)c(Cl)c2)c1O [Synthetic Example 6, 5-{1-[5-(3,4-dichlorophenyl)-4-hydroxy-1-methyl-1H-pyrazol-3-yl]ethylidenehydrazinocarbonyl}thiophene-2-carboxylic Acid 4-picolylamide]	173
CC(=NNC(=O)c1ccc(C(=O)NCc2ccccn2)s1)c1nn(C)c(-c2ccc(C(F)(F)F)cc2)c1O.[K] [Synthetic Example 2, 5-{1-[4-hydroxy-1-methyl-5-(4-trifluoromethylphenyl)-1H-pyrazol-3-yl]ethylidenehydrazinocarbonyl}thiophene-2-carboxylic Acid 2-picolylamide Potassium Salt]	121
CC(=NNC(=O)c1ccc(C(=O)NCc2ccncc2)s1)c1nn(C)c(-c2ccc(C(F)(F)F)cc2)c1O [Synthetic Example 4, 5-{1-[4-hydroxy-1-methyl-5-(4-trifluoromethylphenyl)-1H-pyrazol-3-yl]ethylidenehydrazinocarbonyl}thiophene-2-carboxylic Acid 4-picolyamide]	111

— patent publication US7960425B2, “Pyrazole compounds and thrombopoietin receptor activators” (Nissan Chemical Industries, Ltd., priority 2005, dated 2011)
